Our source for the Kd values is PMC5881531 (FEBS Open Bio, 2018).

In the test the target is T1, Dihydroorotate dehydrogenase of Trypanosoma brucei (TbDHODH), FMN-free form (Trypanosoma brucei, UniProt Q57U83, A115V).
T1 construct: gene Tb927.5.3830
In words: biochemical.

Each structure is given as a SMILES string.

T1 sequence (Q57U83 whole entry A115V): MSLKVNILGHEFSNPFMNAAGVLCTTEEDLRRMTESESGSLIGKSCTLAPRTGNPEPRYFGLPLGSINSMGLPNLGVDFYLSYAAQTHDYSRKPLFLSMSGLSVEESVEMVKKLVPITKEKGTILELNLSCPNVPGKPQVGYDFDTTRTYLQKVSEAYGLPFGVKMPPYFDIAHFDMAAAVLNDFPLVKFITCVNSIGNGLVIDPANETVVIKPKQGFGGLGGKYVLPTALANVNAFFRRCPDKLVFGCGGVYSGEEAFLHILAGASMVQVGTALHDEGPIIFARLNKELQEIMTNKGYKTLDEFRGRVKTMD

In turn, `Cc1cc2nc3c(=O)[nH]c(=O)nc-3n(C[C@H](O)[C@H](O)[C@H](O)COP(=O)(O)O)c2cc1C` [FMN] returned a dissociation constant Kd of 12 nM.
